In patent publication US8053415B2, “Compounds having RD targeting motifs” (Washington University in St. Louis, priority 2005, dated 2011):
Values belong to the compound of their own block, whether it stands above or below them. Where a SMILES comes first, the peptide text is derived from it.

How the values were obtained:
A549 and A427 cells = experiment: Cellular internalization of cyclic cypate-RGD conjugates (Example 2); type: cell-based; settings: 1 μM, 1 h, 37° C.
Experimental: A549 and A427 cells were purchased from ATCC and grown in […] tissue culture flasks or on Lab-Tek chambered slides in Ham's F12K medium with 2 mM L-glutamine supplemented with 1.5 g/L sodium bicarbonate, 10% fetal calf serum, 100 units/ml penicillin and 100 units/mL streptomycin.
Cells were grown to confluence on LabTek microscope slides. After washing with PBS, the cells were incubated with 1 μM of the target compounds for 1 h at 37° C. The medium was removed and the cells washed with PBS. The slides were mounted with anti-fading mounting medium. Cells were visualized with an Olympus microscope system (FV 1000) using 755 excitation and 845 nm emission filters.

[1] = molecular target: T1, purified human αvβ3 integrin protein (Homo sapiens, UniProt P05106+P06756); experiment: Competitive αvβ3 integrin receptor binding assay with 125I-echistatin tracer (Example 2); settings: Table 3, read-out: IC50
T1 construct: purchased Chemicon International, Inc. (Temecula, Calif.)
Experimental: The binding affinities were measured based on the competitive binding between purified αvβ3 integrin (ABI) and peptide ligands. Echistatin is a polypeptide that binds irreversibly with high affinity and specificity to ABI. ^125I-echistatin was used as a tracer in ABI binding assays.
Receptor binding assays were performed by using purified human αvβ3 integrin protein from Chemicon International, Inc. (Temecula, Calif.). Assays were carried out using the Millipore Duropore membrane 96-well plates and the Millipore MultiScreen system (Bedford, Mass.). The 96-well membrane plate was blocked with 0.1% Polythylenimine blocking solution overnight at 4° C. ^125I-echistatin (50 nmol/L) was added to the binding buffer (50 mM Tris-HCl, pH 7.4, 100 mM NaCl, 2 mM CaCl2, 1 mM MgCl2, 1 mM MnCl2, 1% BSA) containing integrin protein (50 ng per well in 96-well membrane plate) and ligands in a total volume of 200 μL per well. The concentration range of ligand was between 0.01 μM and 100 μM. The mixtures were incubated for 2 h at room temperature, the ABI was then filtered by centrifugation at 1500 g and washed three times with 0.20 mL of ice-cold binding buffer. The filters containing radioactivity bound ABI were removed using a punch apparatus and counted using a Packard Cobra II Auto-gamma counter (Meriden, Conn.). […] Radiolabeling of ^125I-echistatin (Amersham Biosciences, Piscataway, N.J.) was carried out in a mixture of 0.25% BSA, 5.0% lactose, 0.21% citric acid and aprotinin (0.9 TIU/ml).

A549 cells [2] = experiment: CyQuant cytotoxicity and proliferation assay; type: cell-based, human; settings: 48 hours
Experimental: Cells were seeded at 2.5×10^4 cells/well and grown in 96 well plates in the presence of 0−1.5×10^−5 M cypate conjugated peptides for 24 or 48 hours. Cell proliferation was measured using the CyQuant proliferation assay from Molecular Probes (Eugene, Oreg.) per the manufacturer's protocol. Briefly, after incubation the microplate was inverted to remove the media and frozen at −70° C. overnight. The microplate was thawed at room temperature and 200 μL of the CyQuant GR dye/cell-lysis buffer was added to each well. […]
Because the Cyquant assay is based on the adherence of a dye to nucleic acids, the assay is a measure of both proliferative and cytotoxic effects.

[3] = Absorption and emission spectral properties in 20% aqueous DMSO; type: physicochemical
Experimental: The spectral properties of cypate and the cypate-peptide conjugates were determined in 20% aqueous DMSO, which solubilizes all the compounds. […] Absorbance measurements were performed with a Beckman Coulter DU 640 spectrophotometer. The fluorescence spectra were recorded on Fluorolog-3 fluorometer (HORIBA Jobin Yvon Inc., Edison, N.J.). To prepare the stock solutions, a high precision analytical balance was used to weigh >2 mg of each compound, which was dissolved in DMSO. The DMSO solutions were then diluted with water to obtain a final solution of 20% aqueous DMSO. An aliquot (known volume) of the solution was transferred to a cuvette with 1 μL precision micropipettes and diluted with 20% aqueous DMSO solvent mixture to give a working solution that absorbs at <1.0 absorbance unit. Aliquots of the working solution were diluted with 20% aqueous DMSO and used to determine the molar absorptivity of each compound. For fluorescence measurements, probe solutions with 0.1 absorbance units were used to minimize inner filter effects.
Previous studies have shown that this solvent mixture boosts fluorescence intensity and is well tolerated by rodents. Additionally, the dyes and their peptide conjugates are soluble in this solvent mixture, providing a common medium for spectral measurements.
Absorbance spectra were measured on a Beckman Coulter DU 640 UV-Visible spectrophotometer. Fluorescence spectra were recorded on a HORIBA Jobin Yvon Fluorolog-3 fluorometer. Stock solutions (1.0 mM) of the conjugates were prepared by dissolving each sample in 80% aqueous DMSO. UV-Vis and fluorescence measurements were carried out by adding 5.0 μL of the stock solutions via a micropipette into 3 mL of 20% aqueous DMSO in a quartz cuvette.

A549 cells [4] = experiment: Cell uptake, internalization and blocking of cypate-peptide conjugates (Example 3); type: cell-based, human
Experimental: The ABI-positive cells were incubated with cypate or cypate-peptide conjugates at 37° C. for different time points. A549 cells were grown as detailed above. The human glioblastoma cell line, U87, and the human embryonic kidney cell line, HEK, were purchased from ATTC. U87 and HEK cells were maintained in minimum essential medium (MEM) with 2 mM L-glutamine and Earle's BSS adjusted to contain 1.5 g/L sodium bicarbonate, 0.1 mM nonessential amino acids, and 1.0 mM sodium pyruvate, with 10% fetal calf serum, 100 units/mL penicillin, and 100 units/mL streptomycin. Cells were grown on Lab-Tek slides. The medium was replaced and cells were incubated for various times up to 4 h at 37° C. in the presence of 1 μM of the dye conjugated peptides. For fluorescence microscopy, cells were visualized with an Olympus BX61W1 microscope using 775/50 excitation, 845/55 emission. For subcellular localization studies, 25 nM mitotracker green or 50 nM lysotracker red from Molecular Probes (Eugene, Oreg.) was added during the last 15 min or 60 min of incubation, respectively. […] Relative fluorescence was determined for five different areas of each experimental condition using the Slidebook software, and the results were averaged. The average relative fluorescence for each condition was normalized to cells treated with Cyp-GRD peptide.

A549 tumor = experiment: In vivo fluorescence optical imaging and ex vivo organ distribution in A549 tumor-bearing nude mice; settings: for blocking of Cyp-GRD uptake in the tumor by co-injection: equimolar, 0.3 μmol/kg body weight
Experimental: All in vivo studies were performed in compliance with the Washington University in St Louis Animal Study Committee's requirements for the care and use of laboratory animals in research. Nude mice (18-22 g) were anesthetized with xylazine/ketamine cocktail via intraperitoneal injection and placed in a supine position. The mice were injected subcutaneously with A549 cells (1×10^6) in the lower back of the mice. Tumor masses were palpable at 5-7 days post implant, which reached 5 mm in 10-15 days. Prior to injection of the probe, the mice were anesthetized as described above. A 29-gauge needle was used to inject the probes into the mouse via the lateral tail vein. The molecular probe (100 μL) was injected via the lateral tail vein at 0.3 μmol per kg of body weight. […] [SEQ ID NO:1] were constituted in a vial, and doses of 0.3 μmol per kg of body weight were injected into the A549 tumor-bearing mice.
A non-invasive in vivo continuous wave fluorescence imaging apparatus was used to visualize the distribution and preferential tissue uptake of the cypate-peptide molecular beacons in the nude mice (Achilefu (2004) Technol. Cancer Res. Treat. 3:393-409, incorporated herein by reference). Light from two laser diodes of nominal wavelength 780 nm and nominal power of 50 mW was launched into a fiber optic bundle. Two laser diodes were used to produce as much uniform illumination of the whole animal or organ parts as possible. The nominal 50 mW of incident power was reduced to about 44 mW at the output of the fiber optic bundle. A de-focusing lens in position after the bundle expanded the beam such that nearly the whole animal was illuminated. A Photometrics CCD camera (16 bit, 1024×1024 pixel, back illuminated, thermoelectric Peltier cooled with forced air) was used to capture the emitted photons. An interference filter (830 nm) was mounted in front of the CCD camera input lens such that only emitted fluorescent light from the contrast agent was imaged. Real-time acquisition, display and data processing software (WinView/32) was used to obtain the optical image. The samples were dissolved in 20% aqueous DMSO and animals were injected with doses of 0.3 μmol/kg body weight via the lateral tail vein. Injected volumes were 100 μL for each mouse. Data analysis consisted of subtracting (pixel by pixel) the pre-injection image from the post injection images, and displaying the false color results. Integration of the relative fluorescence intensities of tumor vs. surrounding tissues indicated the extent of selective uptake of the contrast agent. At the completion of the study, the mice were euthanized and some organ parts were excised and rinsed with water. The tissues were placed under the CCD camera and the fluorescence emission from each organ was measured after excitation with the 780 nm laser sources. Tissue parts, instead of whole organs, were used to minimize problems associated with depth-dependent non-linear fluorescence emission. A statistical program in the WinView package was used to estimate the mean fluorescence intensity per organ part.
In vivo optical imaging studies using the cypate-peptide optical probes were performed and analyzed as described above in Example 1. […]

Structure (SMILES): CC(C)C[C@@H]1NC(=O)[C@H](CC(=O)O)NC(=O)CNC(=O)[C@H](CCCNC(=N)N)NC(=O)[C@@H](NC(=O)CCN2C(=CC=CC=CC=CC3=[N+](CCC(=O)O)c4ccc5ccccc5c4C3(C)C)C(C)(C)c3c2ccc2ccccc32)CSSC[C@@H](C(N)=O)NC1=O [Cypate-cyclo(CRGDLC)-NH2] (HELM PEPTIDE1{[CC1(C)C(/C=C/C=C/C=C/C=C2/N(CCC(=O)[*:2])c3ccc4ccccc4c3C2(C)C)=[N+](CCC(=O)O)c2ccc3ccccc3c21].C.R.G.D.L.C.[am]}$PEPTIDE1,PEPTIDE1,2:R3-7:R3$$$V2.0)
cellular internalization (A549 and A427 cells): internalized by the cells much better than some of the other compounds

IC50 [1]: 328 nM
Structure (SMILES): CC1(C)C(/C=C/C=C/C=C/C=C2/N(CCC(=O)NCC(=O)N[C@@H](CCCNC(=N)N)C(=O)NCC(=O)N[C@@H](CC(=O)O)C(=O)N[C@@H](CO)C(=O)N3CCC[C@H]3C(=O)N[C@@H](CCCCN)C(=O)O)c3ccc4ccccc4c3C2(C)C)=[N+](CCC(=O)O)c2ccc3ccccc3c21 [Cyp-RGD, Cypate-GRGDSPK]
cytotoxicity (CyQuant), longer treatment (A549 cells [2]): some cytotoxicity
^abεmax [3]: 213,726 cm^−1Mol^−1
^abλmax [3]: 789 nm
^emλmax [3]: 811 nm
internalization / fluorescence intensity in cells (A549 cells [4]; 1 μM, 4 h, 37° C.): higher intensity than the linear GRD compound
uptake / retention in A549 tumor (A549 tumor; 0.3 μmol per kg via lateral tail vein, fluorescence imaging): preferentially localized
accumulation / retention in nontarget tissues (A549 tumor; 24 h post injection): primarily retained in the liver and the kidneys
tumor uptake compared among the cypate-peptide conjugates (A549 tumor; 24 h post injection): low

Structure (SMILES): CC(C)[C@@H]1NC(=O)[C@@H](Cc2ccccc2)NC(=O)[C@H](CC(=O)O)NC(=O)CNC(=O)[C@H](CCCNC(=N)N)NC1=O [cyclo[RGDfV], reference compound]
blocking of cypate-GRD uptake / internalization in A549 cells (A549 cells [4]; pretreatment 15 min at 37° C., antibodies 10 μg/ml): blocked the uptake
displacement of cypate-GRD from A549 tumor (A549 tumor; blocking peptide given 24 h postinjection of cypate-GRD): unable to displace
blocking of Cyp-GRD uptake in the tumor by co-injection (A549 tumor; 24 h post injection): blocked the uptake
blocking of Cyp-GRD uptake in the tumor by co-injection (A549 tumor; 24 h post injection, listed as cyclo(RGDfV)): significantly blocked
